Measurements reported in ChEMBL document CHEMBL3779814, “6-O-Nucleotidyltransferase: an aminoglycoside-modifying enzyme specific for streptomycin/streptidine” (2016).
≈ marks a conversion by molar mass, not a printed value. Calls of active or inactive are those of the source. No cut-off for these calls is given here.

Columns and labels:
[1] = test system: Bacillus subtilis; assay: Activity of Bacillus subtilis N-terminal His-tagged ANT(6) expressed in Escherichia coli BL21(DE3) cells assessed as adenylated product by Michaelis-Menten kinetics
[2] = test system: Bacillus subtilis; assay: Activity of Bacillus subtilis N-terminal His-tagged ANT(6) expressed in Escherichia coli BL21(DE3) cells assessed as ratio of Kcat to Km of adenylated product by Michaelis-Menten kinetics
[3] = test system: Escherichia coli; assay: Antibacterial activity against Escherichia coli BL21(DE3) expressing Bacillus subtilis N-terminal His-tagged ANT(6) incubated for 12 hrs; format: functional
[4] = test system: Escherichia coli; assay: Antibacterial activity against Escherichia coli BL21(DE3) harboring pET plasmid incubated for 12 hrs; format: functional
[5] = test system: Escherichia coli; assay: Antibacterial activity against Escherichia coli incubated for 12 hrs; format: functional
[6] = test system: Escherichia coli; assay: Antibacterial activity against Escherichia coli in presence of streptidine; format: functional
[7] = test system: Escherichia coli; assay: Antibacterial activity against Escherichia coli BL21(DE3) expressing Bacillus subtilis N-terminal His-tagged ANT(6) in presence of streptidine; format: functional
[8] = test system: Escherichia coli; assay: Antibacterial activity against Escherichia coli BL21(DE3) expressing ANT(6); format: functional
[9] = test system: Escherichia coli; assay: Antibacterial activity against Escherichia coli; format: functional
[10] = test system: Escherichia coli; assay: Antibacterial activity against Escherichia coli BL21(DE3); format: functional
[11] = test system: Serratia marcescens; assay: Activity of Serratia marcescens ANT(3'')-1i/AAC(6')-2d expressed in Escherichia coli BL21(DE3) cells assessed as ratio of Kcat to Km of ANT(3'')-1i domain catalysed adenylated product by steady state kinetic analysis
[12] = test system: Escherichia coli; assay: Antibacterial activity against Escherichia coli BL21(DE3) harboring pET plasmid incubated for 12 hrs in presence of 2-deoxystreptidine; format: functional
[13] = test system: Escherichia coli; assay: Antibacterial activity against Escherichia coli BL21(DE3) harboring pET plasmid in streptidine; format: functional
[14] = test system: Escherichia coli; assay: Antibacterial activity against Escherichia coli incubated for 12 hrs in presence of 2-deoxystreptidine; format: functional
[15] = test system: Escherichia coli; assay: Antibacterial activity against Escherichia coli BL21(DE3) expressing Bacillus subtilis N-terminal His-tagged ANT(6) incubated for 12 hrs in presence of 2-deoxystreptidine; format: functional

`Nc1nc2c(ncn2[C@@H]2O[C@H](COP(=O)(O)OP(=O)(O)OP(=O)(O)O)[C@@H](O)[C@H]2O)c(=O)[nH]1` was tested. Which Activity [1] did it give?
The Activity was “Active”.

For `NC[C@H]1O[C@H](O[C@H]2[C@H](O[C@@H]3O[C@H](CO)[C@@H](O)[C@H]3O)[C@@H](O)[C@H](N)C[C@@H]2N)[C@H](N)[C@@H](O)[C@@H]1O`, which Activity [1] is on record?
The Activity was “inactive”.

Which results are given for `Nc1ncnc2c1ncn2[C@@H]1O[C@H](COP(=O)(O)OP(=O)(O)OP(=O)(O)O)[C@@H](O)[C@H]1O`?
Activity [1]: Active; Km [1]: 84 µM; kcat [1]: 0.018 s⁻¹; kcat/Km [2]: 2.1 ×10² /s/M

For `N=C(N)N[C@@H]1[C@@H](O)[C@H](NC(=N)N)[C@@H](O)[C@H](O)[C@H]1O`, which MIC90 [3] is on record?
Its MIC90 is > 200 µg/mL.

What about the Km [1] of the same compound?
The Km was 600 µM.

And the kcat [1]?
Its kcat is 0.0006 s⁻¹.

What about the MIC90 [4] of the same compound?
The MIC90 was > 100 µg/mL.

And the kcat/Km [2]?
The kcat/Km was 1.2 s⁻¹ M⁻¹.

What about the MIC90 [5] of the same compound?
Its MIC90 is > 100 µg/mL.

`O=c1ccn([C@@H]2O[C@H](COP(=O)(O)OP(=O)(O)OP(=O)(O)O)[C@@H](O)[C@H]2O)c(=O)[nH]1` was tested. Which Activity [1] did it give?
The Activity was “Active”.

For `N[C@@H]1C[C@H](N)[C@@H](O)[C@H](O)[C@H]1O`, which MIC90 [3] is on record?
Its MIC90 is > 100 µg/mL.

And the MIC90 [5]?
Its MIC90 is > 100 µg/mL.

How did the Activity [1] turn out when `Nc1ccn([C@@H]2O[C@H](COP(=O)(O)OP(=O)(O)OP(=O)(O)O)[C@@H](O)[C@H]2O)c(=O)n1` was run?
The Activity was “Active”.

Which MIC90 [6] does the source give for `CN[C@@H]1[C@H](O[C@H]2[C@H](O[C@H]3[C@H](O)[C@@H](O)[C@H](N=C(N)N)[C@@H](O)[C@@H]3N=C(N)N)O[C@@H](C)[C@]2(O)C=O)O[C@@H](CO)[C@H](O)[C@H]1O` [STREPTOMYCIN] here?
Its MIC90 is 5 µg/mL.

What about the MIC90 [7] of the same compound?
Its MIC90 is 10 µg/mL.

And the MIC90 [8]?
The MIC90 was > 200 µg/mL.

What about the MIC90 [9] of the same compound?
The MIC90 was 5 µg/mL (≈ 8.6 µM).

What about the MIC90 [10] of the same compound?
The MIC90 was 5 µg/mL (≈ 8.6 µM).

And the Km [1]?
Its Km is 38 µM.

And the kcat [1]?
Its kcat is 0.03 s⁻¹.

What about the kcat/Km [11] of the same compound?
Its kcat/Km is 3.2 ×10⁵ /s/M.

And the MIC90 [12]?
The MIC90 was 100 µg/mL.

And the MIC90 [13]?
Its MIC90 is 5 µg/mL (≈ 8.6 µM).

And the MIC90 [14]?
Its MIC90 is 2 µg/mL.

And the MIC90 [15]?
Its MIC90 is 100 µg/mL.

And the kcat/Km [2]?
The kcat/Km was 9.2 ×10² /s/M.

How did the Activity [1] turn out when `Nc1ncnc2c1ncn2[C@@H]1O[C@H](COP(=O)(O)OP(=O)(O)O)[C@@H](O)[C@H]1O` was run?
Its Activity is “inactive”.

With `NC[C@H]1O[C@H](O[C@H]2[C@H](O)[C@@H](O[C@H]3O[C@H](CO)[C@@H](O)[C@H](N)[C@H]3O)[C@H](N)C[C@@H]2N)[C@H](O)[C@@H](O)[C@@H]1O` as the compound, how does the Activity [1] read?
Its Activity is “inactive”.

For `Nc1ncnc2c1ncn2[C@@H]1O[C@H](COP(=O)(O)CP(=O)(O)OP(=O)(O)O)[C@@H](O)[C@H]1O`, which Activity [1] is on record?
Its Activity is “inactive”.

How did the Activity [1] turn out when `Nc1ncnc2c1ncn2[C@@H]1O[C@H](COP(=O)(O)O)[C@@H](O)[C@H]1O` was run?
Its Activity is “inactive”.
